According to PubChem BioAssay AID1259411 (Chemical Carcinogenesis Research Information System (CCRIS), 2018):
Activity calls are given as the source filed them. How the calls were made is not given here.

Tested on: rodent carcinogenicity bioassays, tumor incidence
Assay: CCRIS carcinogenicity studies
Summary of the method: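 NCI-built, expert-reviewed records of carcinogenicity and related test outcomes (mutagenicity, tumor promotion/inhibition) compiled from published and report sources, historical span 1985-2011, not updated.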

CCCCN(CCCC(=O)O)N=O
carcinogen call (Species: MOUSE, Strain/Sex: B6D2F1/FEMALE, Route: ORAL, Dose: 0, 565 MG/L IN DRINKING WATER FOR 13 WK (STUDY DURATION: 28 WK), Tumor Site: Type of Lesion: URINARY BLADDER: TUMOR): active; positive
carcinogen call (Species: MOUSE, Strain/Sex: B6D2F1/MALE, Route: ORAL, Dose: 0, 565 MG/L IN DRINKING WATER FOR 13 WK (STUDY DURATION: 28 WK), Tumor Site: Type of Lesion: URINARY BLADDER: TUMOR): active; positive

O=C1CCCCCN1
carcinogen call (Species: MOUSE, Strain/Sex: B6C3F1/FEMALE, Route: ORAL, Dose: 0, 7500, 15000 PPM IN DIET, Dose: 0, 7500, 15000 PPM IN DIET): inactive; negative
carcinogen call (Species: MOUSE, Strain/Sex: B6C3F1/MALE, Route: ORAL, Dose: 0, 7500, 15000 PPM IN DIET, Dose: 0, 7500, 15000 PPM IN DIET): inactive; negative
carcinogen call (Species: RAT, Strain/Sex: F344/FEMALE, Route: ORAL, Dose: 0, 3750, 7500 PPM IN DIET, Dose: 0, 3750, 7500 PPM IN DIET): inactive; negative
carcinogen call (Species: RAT, Strain/Sex: F344/MALE, Route: ORAL, Dose: 0, 3750, 7500 PPM IN DIET, Dose: 0, 3750, 7500 PPM IN DIET): inactive; negative

Cc1cc(N=Nc2c(O)ccc3ccccc23)c(S(=O)(=O)O)cc1Cl
carcinogen call (Species: MOUSE, Strain/Sex: B6C3F1/FEMALE, Route: ORAL, Dose: 0, 1000, 2000 PPM IN DIET FOR 103 WK (STUDY DURATION: 103 WK), Dose: 0, 1000, 2000 PPM IN DIET FOR 103 WK (STUDY DURATION: 103 WK)): inactive; negative
carcinogen call (Species: MOUSE, Strain/Sex: B6C3F1/MALE, Route: ORAL, Dose: 0, 1000, 2000 PPM IN DIET FOR 103 WK (STUDY DURATION: 103 WK), Dose: 0, 1000, 2000 PPM IN DIET FOR 103 WK (STUDY DURATION: 103 WK)): inactive; negative
carcinogen call (Species: MOUSE, Strain/Sex: ICR/FEMALE, Route: DERMAL, Dose: 0, 1 MG IN 0.1 ML DISTILLED WATER 2/WK FOR A MEAN TOTAL DOSE OF 134.7 MG (STUDY DURATION: 18 MO)): inactive; negative
carcinogen call (Species: MOUSE, Strain/Sex: ICR/MALE, Route: DERMAL, Dose: 0, 1 MG IN 0.1 ML DISTILLED WATER 2/WK FOR A MEAN TOTAL DOSE OF 134.7 MG (STUDY DURATION: 18 MO)): inactive; negative
carcinogen call (Species: RAT, Strain/Sex: F344/FEMALE, Route: ORAL, Dose: 0, 1000, 3000 PPM IN DIET FOR 103 WK (STUDY DURATION: 103 WK), Dose: 0, 1000, 3000 PPM IN DIET FOR 103 WK (STUDY DURATION: 103 WK), Tumor Site: Type of Lesion: LIVER: NEOPLASTIC NODULE): equivocal
carcinogen call (Species: RAT, Strain/Sex: F344/FEMALE, Route: ORAL, Dose: 0, 1000, 3000 PPM IN DIET FOR 103 WK (STUDY DURATION: 104 WK), Dose: 0, 1000, 3000 PPM IN DIET FOR 103 WK (STUDY DURATION: 104 WK)): inactive; negative
carcinogen call (Species: RAT, Strain/Sex: F344/MALE, Route: ORAL, Dose: 0, 1000, 3000 PPM IN DIET FOR 103 WK (STUDY DURATION: 103 WK), Dose: 0, 1000, 3000 PPM IN DIET FOR 103 WK (STUDY DURATION: 103 WK), Tumor Site: Type of Lesion: SPLEEN: SARCOMA, LIVER: NEOPLASTIC NODULE): active; positive
carcinogen call (Species: RAT, Strain/Sex: F344/MALE, Route: ORAL, Dose: 0, 1000, 3000 PPM IN DIET FOR 103 WK (STUDY DURATION: 104 WK), Dose: 0, 1000, 3000 PPM IN DIET FOR 103 WK (STUDY DURATION: 104 WK), Tumor Site: Type of Lesion: SPLEEN OR PERITONEUM: SARCOMA): active; positive

Clc1ccc(C(c2ccc(Cl)cc2)C(Cl)Cl)cc1
carcinogen call (Species: MOUSE, Strain/Sex: B6C3F1/FEMALE, Route: ORAL, Dose: 0, 411, 822 PPM IN DIET FOR 78 WK (STUDY DURATION: 93 WK), Dose: 0, 411, 822 PPM IN DIET FOR 78 WK (STUDY DURATION: 93 WK)): inactive; negative
carcinogen call (Species: MOUSE, Strain/Sex: B6C3F1/MALE, Route: ORAL, Dose: 0, 411, 822 PPM IN DIET FOR 78 WK (STUDY DURATION: 93 WK), Dose: 0, 411, 822 PPM IN DIET FOR 78 WK (STUDY DURATION: 93 WK)): inactive; negative
carcinogen call (Species: MOUSE, Strain/Sex: CF-1/MALE,FEMALE, Route: ORAL, Dose: 250 PPM IN DIET, Tumor Site: Type of Lesion: LUNG): active; positive
carcinogen call (Species: RAT, Strain/Sex: OSBORNE-MENDEL/FEMALE, Route: ORAL, Dose: 0, 850, 1700 PPM IN DIET FOR 78 WK (STUDY DURATION: 113 WK), Dose: 0, 850, 1700 PPM IN DIET FOR 78 WK (STUDY DURATION: 113 WK)): inactive; negative
carcinogen call (Species: RAT, Strain/Sex: OSBORNE-MENDEL/MALE, Route: ORAL, Dose: 0, 1647, 3294 PPM IN DIET FOR 78 WK (STUDY DURATION: 113 WK), Dose: 0, 1647, 3294 PPM IN DIET FOR 78 WK (STUDY DURATION: 113 WK), Tumor Site: Type of Lesion: THYROID GLAND: FOLLICULAR CELL CARCINOMA OR ADENOMA): equivocal
